# In patent US7084154B2, “2-(aminomethyl) arylamide analgesics” (Pharmacopeia Drug Disclovery, Inc., priority 2003, dated 2006):
# Test system: male mice (strain ICR)
# Experiment: Formalin paw licking test in mice
# Assay type: in vivo
# Conditions: 10 mg/kg i.v. in saline, 15 minutes before sub-plantar 3% formalin; compared to vehicle control
# Protocol: The activity of the compounds in the in vitro screen was confirmed in vivo. Compound 103 was dissolved in saline and administrated to male mice (strain ICR) at 10 mg/kg i.v. in the tail vein. After 15 minutes, a 3% solution of formalin was administered sub-plantar and the time spent licking the paw was monitored in 5 minute segments over a 45 minute period. The experiment was conducted on 1–6 mice per group and compared to a control set (5 mice), which were given the vehicle alone prior to formalin injection. The first phase response was reduced by approximately 50%. The person of skill in the art would accept this test as predictive of therapeutic utility for analgesia.
compound,measurement,value
"CC1c2cc(O)ccc2CCN1Cc1ccccc1C(=O)NCC/C=C/c1ccccc1 (stereo not shown) [Compound 103, 2-(7-hydroxy-1-methyl-3,4-dihydro-1H-isoquinolin-2-ylmethyl)-N-(4-phenyl-but-3-enyl)-benzamide]",reduction of first phase response (time spent licking the paw),approximately 50%
